# Source: patent US20100144854A1 (priority 2007, published 2010)
# Assays:
# Type in all cases: in vivo, human
# [1] = tested on: Malignant glioblastoma of the left brain; assay: Example 4: patient with recurrent brain glioblastoma treated with rhodamine 6G intravenously
# Description: Patient G. Diagnosis: Malignant glioblastoma of the left brain. Recurrence of cancer. Two years previously a tumor had been removed in connection with a brain glioblastoma. The patient complained of headaches, nausea and vomiting. […] Patient's condition moderately severe; pale skin. […] The procedure took 40 minutes. Subsequent procedures were carried out in exactly the same sequence twice a week. The course of treatment lasted 3 months. During the treatment the tumor reduced in size to 0.3×0.4 cm. After two infusions of the preparation the symptoms of nausea and pain had decreased. The preparation was administered over 6 months as a single dose once every 2 weeks.
# [2] = tested on: Melanoma of the left lower leg; assay: Example 11: patient with melanoma treated with 5% rhodamine 6G ointment; conditions: Patient Sh., 75
# [3] = tested on: Adenocarcinoma of the prostate; assay: Example 7: patient with prostate adenocarcinoma treated with rhodamine 6G; conditions: Patient Sh., 55
# Description: The patient presented complaining of a sharp pain when urinating and of retention and reddish color of the urine. On examination: Ultrasound scan—prostate approximately 85 cm^3, tumor with irregular contours, 34×40 mm^2 in size. PSA-49.9 […].
# Needle biopsy—adenocarcinoma of the prostate.
# Diagnosis: Adenocarcinoma of the prostate. The patient refused surgical intervention and chemotherapy.
# At night a suppository containing 2% of the preparation was administered.
# [4] = tested on: Primary cancer of the liver; assay: Example 5: patient with primary liver cancer treated with rhodamine 6G; design: Nuclear segments / Erythrocytes / Hemoglobin / Thrombocytes / Leukocytes / Amylase / Chlorine / Serum iron / Cholesterol / Total bilirubin / Bilirubin (line r8, above 'direct'): unit not given here; conditions: for Creatinine / Cholesterol / Total bilirubin / Potassium / ALT / AST / Bilirubin (line r8, above 'direct') / Serum iron / Total protein / Amylase / Chlorine / LDG / Bilirubin (line r10, above 'indirect') / direct (line r9) / indirect (line r11) / Phosphatase, alk. / Erythrocytes / Hemoglobin / Leukocytes / Thrombocytes / Basophils / Eosinophils / Nuclear rods / ESR / Monocytes / Lymphocytes / Nuclear segments: Example 5, Patient L; for Cholesterol: normal 1.66-8.3; for Total bilirubin: normal 2.90-6.54; for Potassium: normal 3.5-6.0; for ALT / AST: normal 5-40; for Bilirubin (line r8, above 'direct'): normal 8.5-20.5; for Serum iron: normal 8.8-27.0; for Total protein: normal 65.0-85.0; for Amylase: normal 95-110.0; for Chlorine: normal 135.0-; for LDG: normal 225-450; for Bilirubin (line r10, above 'indirect') / direct (line r9): normal up to 25%; for indirect (line r11): normal up to 100; for Phosphatase, alk.: normal up to 104; for Basophils: normal 0-1%; for Eosinophils: normal 0-5; for Nuclear rods: normal 1-6%; for ESR: normal 1-15 mm/hr; for Monocytes: normal 2-9%; for Lymphocytes: normal 18-40%; for Nuclear segments: normal 45-70
# Description: Patient […]. Diagnosis: Primary cancer of the liver. One and a half years before, resection of part of the right hepatic lobe on account of liver cell carcinoma. Patient complained of pain in the right hypochondrium, dyspnea, ascites, intermittent retention of stools. Patient's condition moderately severe, loss of appetite, jaundice. […] The patient underwent bougienation of the umbilical vein. […] Subsequent procedures were carried out in exactly the same way twice a week. Only the preparation was administered intravenously. The course of treatment lasted 3 months. During the treatment the tumor in the affected region decreased in size to 0.5×0.7 cm. After 4 months a connective tissue scar of size 0.2×0.3 cm remained at the site of the tumor in the liver.
substance,measurement,setting,value
"9-(2-ethoxycarbonyl)phenyl)-3,6-bis(ethylamino)2,7-dimethylxanthyl chloride [rhodamine 6G]",tumor on CT scan,[1]; after 9 months' treatment,no tumor could be detected
same,symptoms of nausea and pain,[1]; after two infusions,decreased
same,decrease of sizes of the tumors,"[2]; 5% ointment, over 2 months, before 5×7×9 cm",70%
same,recurrence of the melanoma,[2]; over 3 years,no recurrence
same,pain experienced on urination,[3]; 40 days powder oral and 2% suppository,decreased in intensity
same,"decrease of size of the prostate, ultrasound","[3]; after 40 days, before approximately 85 cm^3",40%
same,recurrence of the cancer,[3]; over 2 years,No recurrence
same,"prostate size, ultrasound",[3]; subsequent examination after further 2 weeks oral and enemas,approximately 35 cm^3
same,PSA,"[3]; subsequent examination, before 49.9 ng/mL",1 ng/mL
same,Creatinine,[4]; 04 Feb. 2005,79 µM
same,Cholesterol,[4]; 04 Feb. 2005,5.75
same,Total bilirubin,[4]; 04 Feb. 2005,8.4
same,Potassium,[4]; 04 Feb. 2005,2.28
same,ALT,[4]; 04 Feb. 2005,154.2 el
same,AST,[4]; 04 Feb. 2005,103.8 el
same,"Bilirubin (line r8, above 'direct')",[4]; 04 Feb. 2005,3.3
same,Serum iron,[4]; 04 Feb. 2005,94.4
same,Total protein,[4]; 04 Feb. 2005,78
same,Amylase,[4]; 04 Feb. 2005,102.8
same,Chlorine,[4]; 04 Feb. 2005,114.31
same,LDG,[4]; 04 Feb. 2005,332 el
same,"Bilirubin (line r10, above 'indirect')",[4]; 04 Feb. 2005,84%
same,direct (line r9),[4]; 04 Feb. 2005,5.1%
same,indirect (line r11),[4]; 04 Feb. 2005,89 el
same,"Phosphatase, alk.",[4]; 04 Feb. 2005,4.55 el
same,Creatinine,[4]; 07 Apr. 2005,67 µM
same,Cholesterol,[4]; 07 Apr. 2005,7.03
same,Total bilirubin,[4]; 07 Apr. 2005,8.0
same,Potassium,[4]; 07 Apr. 2005,2.15
same,ALT,[4]; 07 Apr. 2005,40 el
same,AST,[4]; 07 Apr. 2005,30.4 el
same,"Bilirubin (line r8, above 'direct')",[4]; 07 Apr. 2005,2.0
same,Serum iron,[4]; 07 Apr. 2005,43.7
same,Total protein,[4]; 07 Apr. 2005,64.34
same,Amylase,[4]; 07 Apr. 2005,110.0
same,Chlorine,[4]; 07 Apr. 2005,134.2
same,LDG,[4]; 07 Apr. 2005,362 el
same,"Bilirubin (line r10, above 'indirect')",[4]; 07 Apr. 2005,90%
same,direct (line r9),[4]; 07 Apr. 2005,6.0%
same,indirect (line r11),[4]; 07 Apr. 2005,78.0 el
same,"Phosphatase, alk.",[4]; 07 Apr. 2005,6.7 el
same,Creatinine,[4]; 10 Nov. 2004,98 µM
same,Cholesterol,[4]; 10 Nov. 2004,6.21
same,Total bilirubin,[4]; 10 Nov. 2004,11.0
same,Potassium,[4]; 10 Nov. 2004,2.72
same,ALT,[4]; 10 Nov. 2004,665.8 el
same,AST,[4]; 10 Nov. 2004,554.5 el
same,"Bilirubin (line r8, above 'direct')",[4]; 10 Nov. 2004,3.0
same,Serum iron,[4]; 10 Nov. 2004,190.4
same,Total protein,[4]; 10 Nov. 2004,43.43
same,Amylase,[4]; 10 Nov. 2004,114.0
same,Chlorine,[4]; 10 Nov. 2004,114.20
same,LDG,[4]; 10 Nov. 2004,879 el
same,"Bilirubin (line r10, above 'indirect')",[4]; 10 Nov. 2004,82%
same,direct (line r9),[4]; 10 Nov. 2004,8.0%
same,indirect (line r11),[4]; 10 Nov. 2004,107.2 el
same,"Phosphatase, alk.",[4]; 10 Nov. 2004,5.71 el
same,Erythrocytes,[4]; 12 Nov. 2004,3.22
same,Hemoglobin,[4]; 12 Nov. 2004,74
same,Leukocytes,[4]; 12 Nov. 2004,7.2
same,Thrombocytes,[4]; 12 Nov. 2004,315
same,Basophils,[4]; 12 Nov. 2004,1%
same,Eosinophils,[4]; 12 Nov. 2004,1
same,Nuclear rods,[4]; 12 Nov. 2004,1%
same,ESR,[4]; 12 Nov. 2004,3.5 mm/hr
same,Monocytes,[4]; 12 Nov. 2004,15%
same,Lymphocytes,[4]; 12 Nov. 2004,9%
same,Nuclear segments,[4]; 12 Nov. 2004,21
same,Erythrocytes,[4]; 14 Feb. 2005,4.37
same,Hemoglobin,[4]; 14 Feb. 2005,117
same,Leukocytes,[4]; 14 Feb. 2005,5.8
same,Thrombocytes,[4]; 14 Feb. 2005,286
same,Eosinophils,[4]; 14 Feb. 2005,2
same,Monocytes,[4]; 14 Feb. 2005,4%
same,Lymphocytes,[4]; 14 Feb. 2005,23%
same,Nuclear segments,[4]; 14 Feb. 2005,63
same,Erythrocytes,[4]; 17 Apr. 2006,4.67
same,Hemoglobin,[4]; 17 Apr. 2006,123
same,Leukocytes,[4]; 17 Apr. 2006,6.7
same,Thrombocytes,[4]; 17 Apr. 2006,310
same,Basophils,[4]; 17 Apr. 2006,1%
same,Eosinophils,[4]; 17 Apr. 2006,1
same,ESR,[4]; 17 Apr. 2006,8.5 mm/hr
same,Monocytes,[4]; 17 Apr. 2006,9%
same,Lymphocytes,[4]; 17 Apr. 2006,37%
same,Nuclear segments,[4]; 17 Apr. 2006,65
same,Erythrocytes,[4]; 19 Jan. 2005,3.60
same,Hemoglobin,[4]; 19 Jan. 2005,80
same,Leukocytes,[4]; 19 Jan. 2005,7.8
same,Thrombocytes,[4]; 19 Jan. 2005,362
same,Eosinophils,[4]; 19 Jan. 2005,2
same,Nuclear rods,[4]; 19 Jan. 2005,1%
same,Monocytes,[4]; 19 Jan. 2005,4.3%
same,Lymphocytes,[4]; 19 Jan. 2005,16%
same,Nuclear segments,[4]; 19 Jan. 2005,44
same,Creatinine,[4]; 20 Dec. 2005,83 µM
same,Cholesterol,[4]; 20 Dec. 2005,5.62
same,Total bilirubin,[4]; 20 Dec. 2005,24.2
same,Potassium,[4]; 20 Dec. 2005,2.32
same,ALT,[4]; 20 Dec. 2005,426 el
same,AST,[4]; 20 Dec. 2005,432.9 el
same,"Bilirubin (line r8, above 'direct')",[4]; 20 Dec. 2005,22.3
same,Serum iron,[4]; 20 Dec. 2005,224.7
same,Total protein,[4]; 20 Dec. 2005,49.90
same,Amylase,[4]; 20 Dec. 2005,140
same,Chlorine,[4]; 20 Dec. 2005,115.3
same,LDG,[4]; 20 Dec. 2005,556 el
same,"Bilirubin (line r10, above 'indirect')",[4]; 20 Dec. 2005,96%
same,direct (line r9),[4]; 20 Dec. 2005,11.9%
same,indirect (line r11),[4]; 20 Dec. 2005,102 el
same,"Phosphatase, alk.",[4]; 20 Dec. 2005,5.48 el
same,patient's complaints,"[4]; Patient L, 64, at the present time",no complaints
same,blood analyses,"[4]; Patient L, 64, during treatment",positive change
